Assays:
[1] = molecular target: Tyrosine-protein kinase Lck (Homo sapiens, UniProt P06239); assay: Inhibition of p56 lck tyrosine kinase
[2] = molecular target: Epidermal growth factor receptor (Homo sapiens, UniProt P00533); assay: Inhibition of Epidermal growth factor receptor
Epidermal growth factor receptor, sequence (P00533 whole entry): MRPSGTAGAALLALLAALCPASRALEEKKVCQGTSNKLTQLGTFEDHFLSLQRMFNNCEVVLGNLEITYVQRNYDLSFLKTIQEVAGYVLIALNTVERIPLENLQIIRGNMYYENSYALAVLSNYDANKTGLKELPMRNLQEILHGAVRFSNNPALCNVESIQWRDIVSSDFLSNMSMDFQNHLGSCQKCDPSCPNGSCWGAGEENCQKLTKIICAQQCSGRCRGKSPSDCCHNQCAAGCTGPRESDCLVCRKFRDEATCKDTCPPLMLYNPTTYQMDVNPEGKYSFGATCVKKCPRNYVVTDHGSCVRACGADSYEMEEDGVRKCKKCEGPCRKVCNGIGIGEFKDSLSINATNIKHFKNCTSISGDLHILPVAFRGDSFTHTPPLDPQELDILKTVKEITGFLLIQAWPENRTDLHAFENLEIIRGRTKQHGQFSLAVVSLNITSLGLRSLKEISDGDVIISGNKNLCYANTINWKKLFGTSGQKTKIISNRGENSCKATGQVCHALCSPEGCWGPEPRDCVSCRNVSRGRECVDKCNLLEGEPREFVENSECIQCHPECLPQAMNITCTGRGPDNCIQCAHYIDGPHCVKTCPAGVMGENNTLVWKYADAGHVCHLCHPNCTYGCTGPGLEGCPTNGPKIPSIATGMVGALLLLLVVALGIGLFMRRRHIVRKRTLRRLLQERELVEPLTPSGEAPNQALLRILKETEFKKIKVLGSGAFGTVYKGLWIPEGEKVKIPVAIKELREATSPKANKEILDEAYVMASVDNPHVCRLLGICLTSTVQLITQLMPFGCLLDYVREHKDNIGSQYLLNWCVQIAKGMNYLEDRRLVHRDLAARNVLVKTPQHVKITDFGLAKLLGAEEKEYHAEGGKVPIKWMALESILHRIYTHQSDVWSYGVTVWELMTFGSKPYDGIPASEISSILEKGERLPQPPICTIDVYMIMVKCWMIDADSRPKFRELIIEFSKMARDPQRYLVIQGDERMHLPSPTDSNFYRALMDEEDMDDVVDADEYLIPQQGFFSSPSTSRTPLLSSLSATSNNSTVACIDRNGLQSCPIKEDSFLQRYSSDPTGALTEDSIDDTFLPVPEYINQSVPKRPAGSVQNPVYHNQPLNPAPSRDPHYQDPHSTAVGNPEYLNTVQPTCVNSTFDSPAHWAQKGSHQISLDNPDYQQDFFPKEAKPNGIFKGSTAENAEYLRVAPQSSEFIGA

Tyrosine-protein kinase Lck, sequence (P06239 whole entry): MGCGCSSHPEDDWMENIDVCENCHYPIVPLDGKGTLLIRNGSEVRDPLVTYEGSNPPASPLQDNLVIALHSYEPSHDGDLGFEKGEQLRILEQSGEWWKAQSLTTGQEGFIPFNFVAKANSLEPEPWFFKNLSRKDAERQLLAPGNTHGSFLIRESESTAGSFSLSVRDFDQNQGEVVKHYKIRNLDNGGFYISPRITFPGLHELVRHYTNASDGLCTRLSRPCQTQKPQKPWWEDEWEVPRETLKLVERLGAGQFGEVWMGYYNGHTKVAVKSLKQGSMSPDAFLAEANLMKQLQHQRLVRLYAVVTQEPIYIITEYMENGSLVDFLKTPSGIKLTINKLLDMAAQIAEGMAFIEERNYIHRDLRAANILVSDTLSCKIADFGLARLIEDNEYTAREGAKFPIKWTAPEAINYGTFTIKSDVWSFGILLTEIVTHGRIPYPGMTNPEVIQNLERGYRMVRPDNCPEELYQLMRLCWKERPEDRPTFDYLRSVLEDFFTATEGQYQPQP

IC50 [1]	IC50 [2]	Structure (SMILES)
7 µM	4 µM	N#C/C(=C\c1ccc(O)c(O)c1)C(N)=O
100 µM	10 µM	N#C/C(=C\c1cc(O)ccc1O)C(N)=O
	3 µM	O=CN/C=C/c1cc(O)ccc1O [ERBSTATIN]
	7 µM	O=CN/C=C/c1ccc(O)c(O)c1

From ChEMBL document CHEMBL1153680, “Structural influences of styryl-based inhibitors on epidermal growth factor receptor and p56lck tyrosine-specific protein kinases” (Bioorg Med Chem Lett, 1991)
